These results are taken from PubChem BioAssay AID330 (DTP/NCI, 2004).

Several values for one entry are separate records, joined by “and”; a condition that tells them apart may be missing. Identical values can stand only once. Toxic doses and inconclusive results are not listed.

The test system of the assay is P388 leukemia ip, CD2F1 mice, survival T/C. Description: NCI In Vivo Anticancer Drug Screen. Data for tumor model P388 Leukemia (intraperitoneal) in CD2F1 (CDF1) mice. Particulars: endpoint: median survival time, higher = longer survival. In short, it runs like this: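 Mice carrying the transplanted tumor received test compound or vehicle. Survival was recorded in each group, and the value is the treated-group measurement divided by that of the vehicle-treated control group.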

The mark [1] stands for this setting: dose: 50.0 mg/kg/injection, schedule: Q01DX005 (ip), vehicle: Klucel (hydroxypropylcellulose) (HPC).
The mark [2] stands for this setting: dose: 100.0 mg/kg/injection, schedule: Q01DX005 (ip), vehicle: Klucel (hydroxypropylcellulose) (HPC).
The mark [3] stands for this setting: dose: 200.0 mg/kg/injection, schedule: Q01DX005 (ip), vehicle: Klucel (hydroxypropylcellulose) (HPC).
Setting [4] is: dose: 50.0 mg/kg/injection, schedule: Q01DX009 (ip), vehicle: saline with Tween-80.
The mark [5] stands for this setting: dose: 100.0 mg/kg/injection, schedule: Q01DX009 (ip), vehicle: saline with Tween-80.
[6] abbreviates: dose: 200.0 mg/kg/injection, schedule: Q01DX009 (ip), vehicle: saline with Tween-80.
Where [7] appears, read: dose: 50.0 mg/kg/injection, schedule: Q01DX005 (ip), vehicle: saline with Tween-80.
Where [8] appears, read: dose: 100.0 mg/kg/injection, schedule: Q01DX005 (ip), vehicle: saline with Tween-80.
Setting [9] is: dose: 200.0 mg/kg/injection, schedule: Q01DX005 (ip), vehicle: saline with Tween-80.
Where [10] appears, read: dose: 12.5 mg/kg/injection, schedule: Q01DX009 (ip), vehicle: Klucel (hydroxypropylcellulose) (HPC).
[11] abbreviates: dose: 25.0 mg/kg/injection, schedule: Q01DX009 (ip), vehicle: Klucel (hydroxypropylcellulose) (HPC).
Setting [12] is: dose: 50.0 mg/kg/injection, schedule: Q01DX009 (ip), vehicle: Klucel (hydroxypropylcellulose) (HPC).

For the compound `CN(C)CC(C)(CN(C)C)C(=O)/C=C/c1ccc(Cl)c(Cl)c1`, the T/C runs as follows: (dose: 1.88 mg/kg/injection, schedule: Q01DX005 (ip), vehicle: saline with Tween-80) 118 % of control; (dose: 3.75 mg/kg/injection, schedule: Q01DX005 (ip), vehicle: saline with Tween-80) 110 % of control; (dose: 7.5 mg/kg/injection, schedule: Q01DX005 (ip), vehicle: saline with Tween-80) 102 % of control and 110 % of control.
As for `CCCCCCCCCCCCCCCCCCOCC(COP(=O)([O-])OCC[N+](C)(C)C)OC` (centres undefined), the T/C is 103 % of control (dose: 3.12 mg/kg/injection, schedule: Q01DX009 (ip), vehicle: saline); 109 % of control (dose: 6.25 mg/kg/injection, schedule: Q01DX009 (ip), vehicle: saline); 109 % of control (dose: 12.5 mg/kg/injection, schedule: Q01DX005 (ip), vehicle: saline with Tween-80); 107 % of control and 117 % of control (dose: 12.5 mg/kg/injection, schedule: Q01DX009 (ip), vehicle: saline); 122 % of control and 124 % of control (dose: 25.0 mg/kg/injection, schedule: Q01DX009 (ip), vehicle: saline); 88 % of control (dose: 50.0 mg/kg/injection, schedule: Q01DX009 (ip), vehicle: saline).
Consider `COc1cc2c(cc1C(C)c1ccc(OC(C)=O)cc1)OCO2` (centres undefined), for which the T/C runs as follows: (dose: 25.0 mg/kg/injection, schedule: Q01DX005 (ip), vehicle: Klucel (hydroxypropylcellulose) (HPC)) 103 % of control; under setting [1], 103 % of control; under setting [2], 99 % of control; under setting [3], 101 % of control.
As for `CCOC(=O)CCC(NC(=O)N(CCCl)CCCl)C(=O)OCC` (centres undefined), the T/C is 154 % of control under setting [4]; 168 % of control under setting [5]; 113 % of control (dose: 100.0 mg/kg/injection, schedule: Q04DX003 (ip), vehicle: saline with Tween-80); 168 % of control (dose: 132.0 mg/kg/injection, schedule: Q04DX003 (ip), vehicle: saline with Tween-80); 181 % of control under setting [6]; 150 % of control and 172 % of control (dose: 200.0 mg/kg/injection, schedule: Q04DX003 (ip), vehicle: saline with Tween-80). Moreover, the T/C (dose: 300.0 mg/kg/injection, schedule: Q04DX003 (ip), vehicle: saline with Tween-80) is 195 % of control.
Consider `CCCCCCC(CCCCCC)=NO`, for which the T/C is 95 % of control under setting [7], 113 % of control under setting [8] and 104 % of control under setting [9].
Regarding `Nc1ccc(C(=O)c2ccccc2)cc1`, the T/C is 93 % of control (dose: 25.0 mg/kg/injection, schedule: Q01DX009 (ip), vehicle: saline with Tween-80); 100 % of control under setting [4]; 102 % of control under setting [5].
`CC1CCC(C(=O)C(Cl)C(Cl)C2CCCCC2)CC1` (centres undefined): the T/C under setting [1] was 92 % of control and the T/C under setting [2] was 92 % of control.
On to `CC(=O)c1c(C(=O)O)n([O-])c2ccccc2[n+]1=O`, for which the T/C was 97 % of control under setting [7], 94 % of control under setting [8] and 112 % of control under setting [9].
Regarding `COC(=O)C(C)NC(=O)C(C)NC(=O)c1cnc2ccccc2n1` (centres undefined), the T/C (dose: 60.0 mg/kg/injection, schedule: Q01DX005 (ip), vehicle: saline with Tween-80) is 97 % of control; the T/C (dose: 120.0 mg/kg/injection, schedule: Q01DX005 (ip), vehicle: saline with Tween-80) is 99 % of control; the T/C (dose: 240.0 mg/kg/injection, schedule: Q01DX005 (ip), vehicle: saline with Tween-80) was 111 % of control.
`C=C1C(=O)OC2C3CCC2C1C3` (centres undefined): the T/C runs as follows: (dose: 12.5 mg/kg/injection, schedule: Q04DX003 (ip), vehicle: saline with Tween-80) 101 % of control; (dose: 25.0 mg/kg/injection, schedule: Q04DX003 (ip), vehicle: saline with Tween-80) 115 % of control; (dose: 50.0 mg/kg/injection, schedule: Q04DX003 (ip), vehicle: saline with Tween-80) 100 % of control.
Turning to `CC1CCC(C(C)C)C(NN)C1` (centres undefined), the T/C under setting [7] is 104 % of control, the T/C under setting [8] is 100 % of control and the T/C under setting [9] is 108 % of control.
On to `CC(C)C12CC3=C(C(=O)C1O2)C1(C)CCC2=C(COC2=O)C1CC3` (centres undefined), for which the T/C is 102 % of control (dose: 3.75 mg/kg/injection, schedule: Q01DX005 (ip), vehicle: DMSO); 119 % of control (dose: 7.5 mg/kg/injection, schedule: Q01DX005 (ip), vehicle: DMSO); 123 % of control (dose: 15.0 mg/kg/injection, schedule: Q01DX005 (ip), vehicle: DMSO).
For the compound `CCN=C(Nc1cccc(C2=NCCN2)c1)c1ccc(C(=NCC)Nc2cccc(C3=NCCN3)c2)cc1`, the T/C (dose: 1.56 mg/kg/injection, schedule: Q01DX005 (ip), vehicle: Klucel (hydroxypropylcellulose) (HPC)) is 100 % of control; the T/C (dose: 3.12 mg/kg/injection, schedule: Q01DX005 (ip), vehicle: Klucel (hydroxypropylcellulose) (HPC)) is 99 % of control; the T/C (dose: 6.25 mg/kg/injection, schedule: Q01DX005 (ip), vehicle: Klucel (hydroxypropylcellulose) (HPC)) is 109 % of control; the T/C (dose: 12.5 mg/kg/injection, schedule: Q01DX005 (ip), vehicle: Klucel (hydroxypropylcellulose) (HPC)) was 109 % of control.
For `COc1cccc(/C=N/NC(=O)c2ccccc2N2CCCC2)c1O`, the T/C (dose: 12.5 mg/kg/injection, schedule: Q01DX009 (ip), vehicle: olive oil, sesame oil, peanut oil) was 93 % of control; the T/C (dose: 25.0 mg/kg/injection, schedule: Q01DX009 (ip), vehicle: olive oil, sesame oil, peanut oil) is 97 % of control; the T/C (dose: 50.0 mg/kg/injection, schedule: Q01DX009 (ip), vehicle: olive oil, sesame oil, peanut oil) was 97 % of control; the T/C (dose: 100.0 mg/kg/injection, schedule: Q01DX009 (ip), vehicle: olive oil, sesame oil, peanut oil) is 96 % of control; the T/C (dose: 200.0 mg/kg/injection, schedule: Q01DX009 (ip), vehicle: olive oil, sesame oil, peanut oil) is 94 % of control.
`Clc1nc(SC2=NCCN2)c2[nH]cnc2n1`: the T/C reads like this: (dose: 5.0 mg/kg/injection, schedule: Q01DX009 (ip), vehicle: saline with Tween-80) 100 % of control and 92 % of control; (dose: 10.0 mg/kg/injection, schedule: Q01DX009 (ip), vehicle: saline with Tween-80) 104 % of control and 113 % of control; (dose: 20.0 mg/kg/injection, schedule: Q01DX009 (ip), vehicle: saline with Tween-80) 105 % of control; (dose: 40.0 mg/kg/injection, schedule: Q01DX009 (ip), vehicle: saline with Tween-80) 100 % of control.
On to `CCCCCCCCCC(C)(O)C#CC(C)(O)CCCCCCCCC` (centres undefined), for which the T/C is, setting by setting: under setting [5], 87 % of control; under setting [6], 95 % of control; (dose: 400.0 mg/kg/injection, schedule: Q04DX003 (ip), vehicle: saline with Tween-80) 86 % of control.
For `Cc1ccc(S(=O)(=O)C(C#N)(Cc2c[nH]c3ccccc23)Cc2c[nH]c3ccccc23)cc1`, the T/C is, setting by setting: under setting [1], 107 % of control; under setting [2], 101 % of control; under setting [3], 98 % of control.
Take `CN1CCC(C(c2ccccc2)c2ccccc2)C1` (centres undefined): the T/C by setting is: under setting [10], 100 % of control; under setting [11], 102 % of control; under setting [12], 105 % of control.
Turning to `Nc1nc2c(ncn2C2OC(CO)C(O)C2O)c(=O)n1N` (centres undefined), the T/C is 100 % of control and 102 % of control under setting [10]; 103 % of control under setting [11]; 101 % of control and 108 % of control under setting [12]; 104 % of control and 113 % of control (dose: 100.0 mg/kg/injection, schedule: Q01DX009 (ip), vehicle: Klucel (hydroxypropylcellulose) (HPC)).
